One test deals with other neurons. Nature of the test: Toxicity for other neurons (abstract summary). Type of test: cell-based. The settings on record: Homo sapiens, Neuron, read-out: half-maximal toxicity for other neurons.
The next test concerns Enterococcus faecalis. The test is described as follows: Bacterial growth assay. The format is cell-based. The following applies: 20 μM, log growth phase. Here is the method:
Enterococcus faecalis was grown in BHI medium (BD Difco Brain Heart Infusion) with 36 g/l supplemented with 20 μg/ml hemin, 20 μg/ml NAD and 15 g/l agar for plates. Enterococcus faecalis strain 438 originates from eye isolate. Neisseria gonorrhoeae strain MS11 was gifted by T. F. Meyer (Max-Planck-Institute for Infection Biology, Berlin, Germany) ([Edwards et al., 1984]).
Bacteria were grown as described above on solid medium. Prior to substance exposure, bacteria were pre-cultured in liquid medium for at least 2 h. Optical density was determined and a volume equal to an OD550 of 0.2 for Neisseria gonorrhoeae MS11 (equates a final OD550 of 0.04) and an OD600 of 0.2 for Enterococcus faecalis (equates a final OD600 of 0.04) was inoculated into 5 ml of the respective liquid medium. Compound was added at the indicated amounts. Dimethyl sulfoxide (DMSO) level was adjusted to 1 % of final concentration including DMSO control. Samples were incubated for either 10.5 h, until they reached a stationary phase (three measured values in stationary phase) or until they reached an OD of 2.5. Optical density was determined every 0.5 h at OD550 for Neisseria gonorrhoeae MS11 and at OD600 for Enterococcus faecalis. ([Szamosvári et al., 2019]).

Regarding `OCC1CSC(c2ccccc2O)=N1` (centres unmarked) [aerugine, 2-[4-(hydroxymethyl)-4,5-dihydro-1,3-thiazol-2-yl]phenol], in the test on other neurons, the EC50 fell in the range of 10 to 20 µM. For the same molecule, the viability or growth result in the test with Enterococcus faecalis is recorded as “not affected in viability or growth”.
